Where only a bound is given, the exact number is not on record here.

Holding throughout (assay type): biochemical
One test addresses T1, JAK3 (Homo sapiens, UniProt P52333).
T1 construct: All four purified enzymes contain only the catalytic domain; His (N); purchased Carna Biosciences, Inc; host or cells: baculovirus expression system
The test is described as follows: JAK3 kinase assay (HTRF, inhibition of phosphorylation of a synthetic peptide). Particulars: catalytic domain, His-tag; 2 μM ATP (Km); read-out: JAK3 kinase inhibitory activity (EC50). The method, boiled down: (§1)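 Baculovirus-expressed catalytic domains (GST-JAK1 aa 850-1154, GST-TYK2 aa 871-1187, His-JAK2, His-JAK3) phosphorylate 1 μM biotin-TK peptide 20-30 min at RT in 50 mM Hepes pH 7.0 with ATP at Km: JAK1 7 μM, JAK2 4 μM, JAK3 2 μM, TYK2 13 μM; 0.75% DMSO. Stopped with EDTA, HTRF read overnight.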

For the next test, the target named is T2, TYK2 (Homo sapiens, UniProt P29597).
T2 construct: JAK1 (aa 850-1154) and TYK2 (aa 871-1187) are expressed with an N-terminally fused GST-tag; GST (N); purchased Carna Biosciences, Inc; host or cells: baculovirus expression system
T2 sequence (P29597 871-1187): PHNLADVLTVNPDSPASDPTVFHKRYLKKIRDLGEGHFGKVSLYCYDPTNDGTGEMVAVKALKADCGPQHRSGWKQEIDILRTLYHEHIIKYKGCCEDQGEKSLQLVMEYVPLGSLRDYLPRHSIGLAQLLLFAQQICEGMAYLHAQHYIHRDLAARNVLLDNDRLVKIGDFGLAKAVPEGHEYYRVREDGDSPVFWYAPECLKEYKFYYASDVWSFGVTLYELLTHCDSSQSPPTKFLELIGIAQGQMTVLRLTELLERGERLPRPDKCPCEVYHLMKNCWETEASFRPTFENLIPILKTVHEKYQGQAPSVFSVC
The test is described as follows: TYK2 kinase assay (HTRF, inhibition of phosphorylation of a synthetic peptide). Particulars: catalytic domain aa 871-1187, GST-tag; 13 μM ATP (Km); read-out: TYK2 kinase inhibitory activity (EC50). Here is the method: JAK1, JAK2, JAK3 and TYK2 Kinase Assays:
Human baculovirus-expressed JAK1, 2, 3 and TYK2 were purchased from Carna Biosciences, Inc. All four purified enzymes contain only the catalytic domain. JAK1 (aa 850-1154) and TYK2 (aa 871-1187) are expressed with an N-terminally fused GST-tag, and JAK2 and JAK3 with an N-terminally fused His-tag. Inhibition of phosphorylation of a synthetic peptide was measured in an HTRF-based assay using the TK substrate-Biotin from the CisbioHTRFKinEASE TK kit. First, 2 μl of TK solution (TK substrate-biotin in kinase buffer [1× enzymatic buffer from HTRFKinEASE TK kit, 1 mM DTT]) is added to a plate containing 1 μl prediluted compound (final assay concentration DMSO: 0.75%). Then, 5 μl kinase-ATP mix (prepared in kinase buffer) is added to the wells and the plates are incubated at RT for 20-30 min. For all four kinases a concentration of ATP that corresponded to the Km for ATP was used. The final concentrations of buffers, substrate, kinase and ATP were: JAK1: 50 mMHepes buffer pH 7.0, 0.01% BSA, 10 mM MgCl2, 1 mM DTT, 7 μM ATP, 50 nMSEB, 1 μM TK Substrate-Biotin and 5 ng JAK1; JAK2: 50 mM Hepes buffer pH 7.0, 0.01% BSA, 5 mM MgCl2, 1 mM DTT, 4 μM ATP, 1 μM TK Substrate-Biotin and 0.1 ng JAK2; JAK3: 50 mMHepes buffer pH 7.0, 0.01% BSA, 5 mM MgCl2, 1 mM DTT, 2 μM ATP, 1 μM TK Substrate-Biotin and 0.3 ng JAK3; TYK2: 50 mMHepes buffer pH 7.0, 0.01% BSA, 5 mM MgCl2, 1 mM DTT, 13 μM ATP, 50 nMSEB, 1 μM TK Substrate-Biotin and 0.8 ng TYK2. Thereafter, the kinase reaction is stopped by adding 4 μl detection mix (final concentrations: 50 mM Hepes buffer pH 7.0, 0.01% BSA, 0.8 M KF, 20 mM EDTA, 42 nM Streptavidin-XL665 and 1:400 STKAbCryptate) and the plates are incubated overnight in the dark. The HTRF signal is read using an Envision plate reader.

The target in a further test is T3, JAK2 (Homo sapiens, UniProt O60674).
T3 construct: All four purified enzymes contain only the catalytic domain; His (N); purchased Carna Biosciences, Inc; host or cells: baculovirus expression system
Put plainly: JAK2 kinase assay (HTRF, inhibition of phosphorylation of a synthetic peptide). Particulars: catalytic domain, His-tag; 4 μM ATP (Km); read-out: JAK2 kinase inhibitory activity (EC50). The method, boiled down: as §1
For orientation: Time-resolved FRET reads energy transfer from a long-lived donor to a nearby acceptor.

Another test has as its target T4, JAK1 (Homo sapiens, UniProt P23458).
T4 construct: JAK1 (aa 850-1154) and TYK2 (aa 871-1187) are expressed with an N-terminally fused GST-tag; GST (N); purchased Carna Biosciences, Inc; host or cells: baculovirus expression system
The test is described as follows: JAK1 kinase assay (HTRF, inhibition of phosphorylation of a synthetic peptide). Particulars: catalytic domain aa 850-1154, GST-tag; 7 μM ATP (Km); read-out: JAK1 kinase inhibitory activity (EC50). The method, boiled down:
as §1

T3 sequence (O60674 849-1124 limits assumed): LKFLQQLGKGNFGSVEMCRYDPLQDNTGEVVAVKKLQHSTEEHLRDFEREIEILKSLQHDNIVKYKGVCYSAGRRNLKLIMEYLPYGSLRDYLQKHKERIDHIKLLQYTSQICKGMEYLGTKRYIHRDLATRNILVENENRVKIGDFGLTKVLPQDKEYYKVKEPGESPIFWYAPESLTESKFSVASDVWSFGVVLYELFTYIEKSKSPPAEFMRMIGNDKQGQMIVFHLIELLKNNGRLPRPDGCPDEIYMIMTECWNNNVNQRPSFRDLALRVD
T4 sequence (P23458 850-1154): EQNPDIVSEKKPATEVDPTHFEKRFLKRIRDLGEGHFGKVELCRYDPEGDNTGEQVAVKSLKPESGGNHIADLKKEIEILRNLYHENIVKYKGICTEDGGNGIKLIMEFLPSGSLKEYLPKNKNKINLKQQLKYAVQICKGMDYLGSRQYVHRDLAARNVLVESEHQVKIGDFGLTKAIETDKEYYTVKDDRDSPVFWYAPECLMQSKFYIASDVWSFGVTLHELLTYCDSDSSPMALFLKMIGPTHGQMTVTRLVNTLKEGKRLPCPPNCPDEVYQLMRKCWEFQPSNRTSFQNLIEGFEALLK
T1 sequence (P52333 822-1111 limits assumed): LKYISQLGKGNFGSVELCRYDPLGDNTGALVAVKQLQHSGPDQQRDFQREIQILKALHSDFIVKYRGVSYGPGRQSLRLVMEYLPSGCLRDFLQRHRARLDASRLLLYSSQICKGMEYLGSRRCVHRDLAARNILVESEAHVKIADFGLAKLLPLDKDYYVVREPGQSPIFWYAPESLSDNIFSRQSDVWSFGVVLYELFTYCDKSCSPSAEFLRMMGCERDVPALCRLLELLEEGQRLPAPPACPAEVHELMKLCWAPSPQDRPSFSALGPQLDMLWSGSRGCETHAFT

Regarding `N#CCC(=O)N1CCN(c2ncnc3[nH]ccc23)CC2(CC2)C1` [Example 5, 3-oxo-3-[8-(7H-pyrrolo[2,3-d]pyrimidin-4-yl)-5,8-diazaspiro[2.6]non-5-yl]propionitrile], the EC50 – broadly, the concentration needed to bring the measured effect to its halfway point – on JAK3 is below 100 nM; on TYK2, 100 to 1000 nM; on JAK2, below 100 nM; on JAK1, below 100 nM.
`Cc1sc(C(=O)N2CCN(c3ncnc4[nH]ccc34)CC3(CC3)C2)cc1S(N)(=O)=O` [Example 24, 2-methyl-5-[5-(7H-pyrrolo[2,3-d]pyrimidin-4-yl)-5,8-diazaspiro[2.6]nonane-8-carbonyl]thiophene-3-sulfonamide]: the EC50 is below 100 nM on JAK3, 100 to 1000 nM on TYK2, below 100 nM at JAK2 and below 100 nM on JAK1.
With `O=C(c1ccc[nH]1)N1CCCN(c2ncnc3[nH]ccc23)CC12CC2` [Example 255, [5-(7H-pyrrolo[2,3-d]pyrimidin-4-yl)-5,9-diazaspiro[2.6]nonan-9-yl]-(1H-pyrrol-2-yl)methanone], the EC50 is 100 to 1000 nM on JAK3, 100 to 1000 nM on TYK2, below 100 nM at JAK2 and below 100 nM at JAK1.
For the compound `COCCNS(=O)(=O)c1ccc(C(=O)N2CCN(c3ncnc4[nH]ccc34)CC3(CC3)C2)cc1` [Example 74, N-(2-methoxyethyl)-4-[5-(7H-pyrrolo[2,3-d]pyrimidin-4-yl)-5,8-diazaspiro[2.6]nonane-8-carbonyl]benzenesulfonamide], the EC50 at JAK3 was 100 to 1000 nM; at TYK2, above 1000 nM; at JAK2, 100 to 1000 nM; on JAK1, 100 to 1000 nM.
Consider `Cc1ccc(CC(=O)N2CCN(c3ncnc4[nH]ccc34)CC3(CC3)C2)cc1` [Example 263], for which the EC50 on JAK3 was 100 to 1000 nM; at TYK2, 100 to 1000 nM; on JAK2 it was below 100 nM; on JAK1, below 100 nM.
Regarding `N#CCOc1ccc(CC(=O)N2CCN(c3ncnc4[nH]ccc34)CC3(CC3)C2)cc1` [Example 16, 2-[4-[2-oxo-2-[5-(7H-pyrrolo[2,3-d]pyrimidin-4-yl)-5,8-diazaspiro[2.6]nonan-8-yl]ethyl]phenoxy]acetonitrile], the EC50 on JAK3 was 100 to 1000 nM; on TYK2, above 1000 nM; on JAK2, below 100 nM; at JAK1, below 100 nM.
In the case of `CC(C)(C#N)C(=O)N1CCN(c2ncnc3[nH]ccc23)CC2(CC2)C1` [Example 11, 2,2-Dimethyl-3-oxo-3-[8-(7H-pyrrolo[2,3-d]pyrimidin-4-yl)-5,8-diazaspiro[2.6]non-5-yl]propionitrile], the EC50 on JAK3 was 100 to 1000 nM; at TYK2, above 1000 nM; at JAK2, 100 to 1000 nM; on JAK1, above 1000 nM.
On to `N#CCCNS(=O)(=O)c1ccc(C(=O)N2CCN(c3ncnc4[nH]ccc34)CC3(CC3)C2)cc1` [Example 69, N-(2-cyanoethyl)-4-[5-(7H-pyrrolo[2,3-d]pyrimidin-4-yl)-5,8-diazaspiro[2.6]nonane-8-carbonyl]benzenesulfonamide], for which the EC50 was 100 to 1000 nM on JAK3, above 1000 nM at TYK2, 100 to 1000 nM on JAK2 and 100 to 1000 nM at JAK1.
On to `N#CCOc1ccc(C(=O)N2CCN(c3ncnc4[nH]ccc34)CC3(CC3)C2)cc1` [Example 15, 2-[4-[5-(7H-pyrrolo[2,3-d]pyrimidin-4-yl)-5,8-diazaspiro[2.6]nonane-8-carbonyl]phenoxy]acetonitrile], for which the EC50 on JAK3 is 100 to 1000 nM; on TYK2 it was above 1000 nM; at JAK2 it was 100 to 1000 nM; on JAK1, 100 to 1000 nM.
`c1nc(N2CCNCC3(CC3)C2)c2cc[nH]c2n1` [Example 290]: the EC50 at JAK3, on TYK2, at JAK2 and at JAK1 was above 1000 nM in each case.
For `c1ccc(CN2CCN(c3ncnc4[nH]ccc34)CC3(CC3)C2)cc1` [Example 107, 4-(5-benzyl-5,8-diazaspiro[2.6]nonan-8-yl)-7H-pyrrolo[2,3-d]pyrimidine], the EC50 at JAK3, on TYK2, on JAK2 and on JAK1 was above 1000 nM throughout.

For the origin of these results see patent US9586961B2, “Homopiperazine derivatives as protein tyrosine kinase inhibitors and pharmaceutical use thereof” (LEO PHARMA A/S, priority 2010, dated 2017).
